Test results from patent US6914151B1, “Crystallization processes for the formation of stable crystals of aspartame derivative” (Ajinomoto Co., Inc., priority 1998, dated 2005).

What was measured:
[1] = on the weight basis, cited from earlier work
[2] = Stability test at 70° C. of crystals (remaining ratio of N-(3,3-dimethylbutyl)-APM); format: physicochemical
Description: The resulting G-type crystals and A-type crystals of N-(3,3-dimethylbutyl)-APM were tested at 70° C., concerning their stability. […] The relationship between the storage time and the remaining ratio of N-(3,3-dimethylbutyl)-APM in this test will be shown below in Table 1.

Remaining ratio ([2]; time elapsed 0 hrs) | Remaining ratio ([2]; time elapsed 52 hrs) | Remaining ratio ([2]; time elapsed 160 hrs) | Remaining ratio ([2]; time elapsed 160 hrs, listed as A-type crystals) | Remaining ratio ([2]; time elapsed 160 hrs, listed as G-type crystals) | SMILES | sweetening potency relative to aspartame ([1]; times that of aspartame) | sweetening potency relative to sucrose ([1]; times that of sucrose (table sugar))
– | – | – | – | – | COC(=O)[C@H](Cc1ccccc1)NC(=O)[C@H](CC(=O)O)NCCC(C)(C)C [N-(3,3-dimethylbutyl)-ATM, N-[N-(3,3-dimethylbutyl)-L-α-aspartyl]-L-phenylalanine methyl ester] | at least 50 times | about 10,000 times
95 wt. % | 95 wt. % | 94 wt. % | 94 wt. % | – | COC(=O)[C@H](Cc1ccccc1)NC(=O)[C@H](CC(=O)O)NCCC(C)(C)C [A, N-[N-(3,3-dimethylbutyl)-L-α-aspartyl]-L-phenylalanine methyl ester] | – | –
96 wt. % | 87 wt. % | 34 wt. % | – | 34 wt. % | COC(=O)[C@H](Cc1ccccc1)NC(=O)[C@H](CC(=O)O)NCCC(C)(C)C [G, N-[N-(3,3-dimethylbutyl)-L-α-aspartyl]-L-phenylalanine methyl ester, reference compound] | – | –
